From patent US9440982B2 (Eolas Therapeutics, Inc., priority 2012, dated 2016)
Like-named read-outs stand apart in the source and are kept apart here.

Legend:
CYP3A4 = target: T1, CYP3A4 (Homo sapiens, UniProt P08684); test: Cytochrome P450 inhibition assay (midazolam hydroxylation); format: in vitro ADME; conditions: human, human liver microsomes, probe midazolam (hydroxylation to 1′-hydroxymidazolam), 10 μM test compound, midazolam at approximately its Km
T1 construct: pre-incubated with human liver microsomes and NADPH; from tissue; host or cells: human liver microsomes
Procedure, shortened: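 Percent inhibition of midazolam 1′-hydroxylation by 10 μM compound was measured, midazolam dosed at about Km. Time-dependent inhibition was probed by a 30 min preincubation of compound with human liver microsomes and NADPH ahead of substrate, compared against samples without preincubation.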

OX1 = target: T2, OX1 (Homo sapiens, UniProt O43613); test: Orexin receptor cell-based functional assay, [Ca2+]i by FLIPR, CHO-OX1 cells
T2 construct: expressed in transfected cells; host or cells: CHO (CHO-OX1, kept under selection antibiotic)
T2 sequence (O43613 1-425): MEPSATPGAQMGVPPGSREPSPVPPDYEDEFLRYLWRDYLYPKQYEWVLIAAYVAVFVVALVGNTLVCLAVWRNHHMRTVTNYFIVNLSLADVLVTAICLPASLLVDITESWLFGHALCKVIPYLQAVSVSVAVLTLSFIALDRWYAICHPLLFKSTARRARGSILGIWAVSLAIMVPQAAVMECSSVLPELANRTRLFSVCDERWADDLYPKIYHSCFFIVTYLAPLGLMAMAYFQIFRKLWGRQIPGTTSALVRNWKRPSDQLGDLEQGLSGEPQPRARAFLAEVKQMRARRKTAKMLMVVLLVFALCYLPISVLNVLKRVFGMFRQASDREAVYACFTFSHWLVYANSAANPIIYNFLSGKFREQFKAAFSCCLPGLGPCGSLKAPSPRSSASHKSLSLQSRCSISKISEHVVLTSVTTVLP
Procedure, shortened: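 Antagonist mode FLIPR calcium read in CHO-OX1 and CHO-OX2 lines. Test compounds, dosed 0.1 nM-10 μM, preincubated 30 min after 37° C dye loading with 2.5 mM probenecid (calcium4 for 30 min or calcium6 for 2 h).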

[1] = CHO-OX1 cells, [Ca2+]i by FLIPR, antagonist dose-range 0.1 nM-10 μM, EC90 of OXA, read-out: OX1
[2] = Table 6, racemate vs enantiomers, read-out: OX1 IC50

T1 sequence (P08684 whole entry): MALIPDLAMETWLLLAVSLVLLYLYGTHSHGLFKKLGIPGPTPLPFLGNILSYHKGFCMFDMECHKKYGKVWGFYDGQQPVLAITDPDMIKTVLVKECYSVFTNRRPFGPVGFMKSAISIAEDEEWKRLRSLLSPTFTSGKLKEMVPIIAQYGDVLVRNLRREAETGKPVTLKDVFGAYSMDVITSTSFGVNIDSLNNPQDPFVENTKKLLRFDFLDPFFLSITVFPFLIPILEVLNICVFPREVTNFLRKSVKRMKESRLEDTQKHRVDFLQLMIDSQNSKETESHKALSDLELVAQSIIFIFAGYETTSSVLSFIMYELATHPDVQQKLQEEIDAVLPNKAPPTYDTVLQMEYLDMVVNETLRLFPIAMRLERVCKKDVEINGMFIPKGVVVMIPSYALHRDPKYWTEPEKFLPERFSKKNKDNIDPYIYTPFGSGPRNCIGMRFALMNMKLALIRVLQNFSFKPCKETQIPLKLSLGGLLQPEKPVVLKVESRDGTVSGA

inhibition at 10 µM (CYP3A4) | IC50 (OX1; [1]) | IC50 (OX1; [2]) | Structure (SMILES)
96% | 260 nM |  | Cc1ccc(-n2ncnc2C)c(C(=O)N2CCC[C@@H](C)[C@H]2CNc2ccc(C(F)(F)F)cn2)c1 [Example A16, ((2S,3R)-3-Methyl-2-(((5-(trifluoromethyl)pyridin-2-yl)amino)methyl)piperidin-1-yl)(5-methyl-2-(5-methyl-1H-1,2,4-triazol-1-yl)phenyl)methanone]
95% | 20 nM |  | Cc1ccc(-n2cnc(C)n2)c(C(=O)N2CCC[C@@H](C)[C@H]2CNc2ccc(C(F)(F)F)cn2)c1 [Example A17, ((2S,3R)-3-Methyl-2-(((5-(trifluoromethyl)pyridin-2-yl)amino)methyl)piperidin-1-yl)(5-methyl-2-(3-methyl-1H-1,2,4-triazol-1-yl)phenyl)methanone]
95% | 7 nM |  | Cc1ccc(-c2ccn(C)n2)c(C(=O)N2CCC[C@@H](C)[C@H]2CNc2ccc(C(F)(F)F)cn2)c1 [Example A18, ((2S,3R)-3-Methyl-2-(((5-(trifluoromethyl)pyridin-2-yl)amino)methyl)piperidin-1-yl)(5-methyl-2-(1-methyl-1H-pyrazol-3-yl)phenyl)methanone]
96% | 4 nM |  | Cc1ccc(-c2cnccn2)c(C(=O)N2CCC[C@@H](C)[C@H]2CNc2ccc(C(F)(F)F)cn2)c1 [Example A19, ((2S,3R)-3-Methyl-2-(((5-(trifluoromethyl)pyridin-2-yl)amino)methyl)piperidin-1-yl)(5-methyl-2-(pyrazin-2-yl)phenyl)methanone]
83% | 37 nM |  | Cc1ccc(-c2nccn2C)c(C(=O)N2CCC[C@@H](C)[C@H]2CNc2ccc(C(F)(F)F)cn2)c1 [Example A20, ((2S,3R)-3-Methyl-2-(((5-(trifluoromethyl)pyridin-2-yl)amino)methyl)piperidin-1-yl)(5-methyl-2-(1-methyl-1H-imidazol-2-yl)phenyl)methanone]
89% | 13 nM |  | COc1ccnc(-c2ccc(C)cc2C(=O)N2CCC[C@@H](C)[C@H]2CNc2ccc(C(F)(F)F)cn2)n1 [Example A21, (2-(4-Methoxypyrimidin-2-yl)-5-methylphenyl)((2S,3R)-3-methyl-2-(((5-(trifluoromethyl)pyridin-2-yl)amino)methyl)piperidin-1-yl)methanone]
75% | > 1000 nM |  | Cc1ccc(-c2nn[nH]n2)c(C(=O)N2CCC[C@@H](C)[C@H]2CNc2ccc(C(F)(F)F)cn2)c1 [Example A23, ((2S,3R)-3-Methyl-2-(((5-(trifluoromethyl)pyridin-2-yl)amino)methyl)piperidin-1-yl)(5-methyl-2-(2H-tetrazol-5-yl)phenyl)methanone]
97% | 11 nM |  | Cc1ccc(-c2nccs2)c(C(=O)N2CCC[C@@H](C)[C@H]2CNc2ccc(C(F)(F)F)cn2)c1 [Example A24, ((2S,3R)-3-Methyl-2-(((5-(trifluoromethyl)pyridin-2-yl)amino)methyl)piperidin-1-yl)(5-methyl-2-(thiazol-2-yl)phenyl)methanone]
91% | 87 nM |  | Cc1ccc(-n2cnc(C)n2)c(C(=O)N2CCC[C@@H](C)[C@H]2CNc2nc3cc(Cl)ccc3o2)c1 [Example A29, ((2S,3R)-2-(((5-Chlorobenzo[d]oxazol-2-yl)amino)methyl)-3-methylpiperidin-1-yl)(5-methyl-2-(3-methyl-1H-1,2,4-triazol-1-yl)phenyl)methanone]
96% | 4 nM |  | Cc1ccc(-c2ccnc(C)c2)c(C(=O)N2CCC[C@@H](C)[C@H]2CNc2nc3cc(Cl)ccc3o2)c1 [Example A37, ((2S,3R)-2-(((5-Chlorobenzo[d]oxazol-2-yl)amino)methyl)-3-methylpiperidin-1-yl)(5-methyl-2-(2-methylpyridin-4-yl)phenyl)methanone]
52% | 4 nM |  | Cc1nc(C(=O)N2CCC[C@@H](C)[C@H]2CNc2ncc(Cl)cn2)c(-c2ccc(F)cc2)s1 [Example A41, ((2S,3R)-2-(((5-Chloropyrimidin-2-yl)amino)methyl)-3-methylpiperidin-1-yl)(5-(4-fluorophenyl)-2-methylthiazol-4-yl)methanone]
55% | 670 nM | 670 nM | Cc1nc(C(=O)N2CCC[C@H](C)[C@@H]2CNc2ccc(C(F)(F)F)cn2)c(-c2ccc(F)cc2)s1 [Example A43, (5-(4-Fluorophenyl)-2-methylthiazol-4-yl)((2R,3S)-3-methyl-2-(((5-(trifluoromethyl)pyridin-2-yl)amino)methyl)piperidin-1-yl)methanone]
56% | 150 nM |  | Cc1ccc(-n2nccn2)c(C(=O)N2CCC[C@@H](C)[C@H]2CNc2ccc(F)cn2)c1 [Example A47, ((2S,3R)-2-(((5-Fluoropyridin-2-yl)amino)methyl)-3-methylpiperidin-1-yl)(5-methyl-2-(2H-1,2,3-triazol-2-yl)phenyl)methanone]
87% | 50 nM |  | Cc1ccc(NC[C@@H]2[C@H](C)CCCN2C(=O)c2cc(C)ccc2-c2ccccn2)nc1 [Example A59, ((2S,3R)-3-Methyl-2-(((5-methylpyridin-2-yl)amino)methyl)piperidin-1-yl)(5-methyl-2-(pyridin-2-yl)phenyl)methanone]
69% | 490 nM |  | Cc1ccc(-c2ccccn2)c(C(=O)N2CCC[C@@H](C)[C@H]2CNc2ccc(C#N)cn2)c1 [Example A60, 6-((((2S,3R)-3-Methyl-1-(5-methyl-2-(pyridin-2-yl)benzoyl)piperidin-2-yl)methyl)amino)nicotinonitrile]
84% | 7 nM |  | Cc1ccc(-n2nccn2)c(C(=O)N2CCC[C@@H](C)[C@H]2CNc2ccc(Cl)cn2)c1 [Example A78, ((2S,3R)-2-(((5-Chloropyridin-2-yl)amino)methyl)-3-methylpiperidin-1-yl)(5-methyl-2-(2H-1,2,3-triazol-2-yl)phenyl)methanone]
5% | 310 nM |  | Cc1ccc(-n2nccn2)c(C(=O)N2CCC[C@@H](C)[C@H]2CNc2cccc(C)n2)c1 [Example A79, ((2S,3R)-3-Methyl-2-(((6-methylpyridin-2-yl)amino)methyl)piperidin-1-yl)(5-methyl-2-(2H-1,2,3-triazol-2-yl)phenyl)methanone]
28% | 1870 nM |  | COc1cccc(NC[C@@H]2[C@H](C)CCCN2C(=O)c2cc(C)ccc2-n2nccn2)n1 [Example A80, ((2S,3R)-2-(((6-Methoxypyridin-2-yl)amino)methyl)-3-methylpiperidin-1-yl)(5-methyl-2-(2H-1,2,3-triazol-2-yl)phenyl)methanone]
68% | 8 nM |  | Cc1ccc(-n2nccn2)c(C(=O)N2CCC[C@@H](C)[C@H]2CNc2ncc(C(F)(F)F)cc2F)c1 [Example A82, ((2S,3R)-2-(((3-Fluoro-5-(trifluoromethyl)pyridin-2-yl)amino)methyl)-3-methylpiperidin-1-yl)(5-methyl-2-(2H-1,2,3-triazol-2-yl)phenyl)methanone]
9% | 2 nM | 2 nM | Cc1nc(C(=O)N2CCC[C@@H](C)[C@H]2CNc2ccc(C(F)(F)F)cn2)c(-c2ccc(F)cc2)s1 [Example A85, (5-(4-Fluorophenyl)-2-methylthiazol-4-yl)((2S,3R)-3-methyl-2-(((5-(trifluoromethyl)pyridin-2-yl)amino)methyl)piperidin-1-yl)methanone]
73% | 220 nM |  | Cc1ccc(-c2cnn(C)c2)c(C(=O)N2CCC[C@@H](C)[C@H]2CNc2cccc(C)n2)c1 [Example A87, ((2S,3R)-3-Methyl-2-(((6-methylpyridin-2-yl)amino)methyl)piperidin-1-yl)(5-methyl-2-(1-methyl-1H-pyrazol-4-yl)phenyl)methanone]
75% | 600 nM |  | Cc1ccc(-n2nccn2)c(C(=O)N2CCC[C@@H](C)[C@H]2CNc2ncccc2C(F)(F)F)c1 [Example A88, ((2S,3R)-3-Methyl-2-(((3-(trifluoromethyl)pyridin-2-yl)amino)methyl)piperidin-1-yl)(5-methyl-2-(2H-1,2,3-triazol-2-yl)phenyl)methanone]
96% | 460 nM |  | Cc1ccc(-c2cnn(C)c2)c(C(=O)N2CCC[C@@H](C)[C@H]2CNc2ncccc2C(F)(F)F)c1 [Example A93, ((2S,3R)-3-Methyl-2-(((3-(trifluoromethyl)pyridin-2-yl)amino)methyl)piperidin-1-yl)(5-methyl-2-(1-methyl-1H-pyrazol-4-yl)phenyl)methanone]
